Results published in patent EP1935986B1, “Luminogenic and fluorogenic compounds and methods to detect molecules or conditions” (priority 2005, dated 2006).
Where “and” joins values, the source holds several entries; their conditions need not be identical. Equal entries are not always repeated.

What was measured:
CYP2D6 = biological target: T1, CYP2D6 (Homo sapiens, UniProt P10635); assay: Screening inhibitors of CYP2D6 with luciferin-6-methylether ethylene glycol ester (IC50); format: biochemical; conditions: substrate luciferin-6-methylether ethylene glycol ester
T1 construct: purchased Discovery Labware (BD/Gentest); host or cells: insect cell expression system (membrane fractions)
T1 sequence (P10635 whole entry): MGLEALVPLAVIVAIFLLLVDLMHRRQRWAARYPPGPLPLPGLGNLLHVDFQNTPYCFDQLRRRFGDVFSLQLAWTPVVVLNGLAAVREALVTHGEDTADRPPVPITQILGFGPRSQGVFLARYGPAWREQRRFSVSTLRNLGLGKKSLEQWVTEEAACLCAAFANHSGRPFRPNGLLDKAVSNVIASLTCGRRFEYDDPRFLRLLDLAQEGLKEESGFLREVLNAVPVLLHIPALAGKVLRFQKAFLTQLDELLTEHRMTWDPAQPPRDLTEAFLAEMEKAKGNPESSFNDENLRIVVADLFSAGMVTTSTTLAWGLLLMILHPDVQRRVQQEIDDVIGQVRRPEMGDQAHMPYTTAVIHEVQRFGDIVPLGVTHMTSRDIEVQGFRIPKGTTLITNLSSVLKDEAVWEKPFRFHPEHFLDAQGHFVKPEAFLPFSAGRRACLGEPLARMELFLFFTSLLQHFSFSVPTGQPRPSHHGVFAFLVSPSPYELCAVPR

[1] = biological target: T2, human recombinant monoamine oxidase B (MAO B) (Homo sapiens, UniProt P27338); conditions: published values; cited from earlier work
T2 construct: purchased Sigma Chemical Company M-7441; host or cells: baculovirus infected insect cells (microsomes)
T2 sequence (P27338 1-520): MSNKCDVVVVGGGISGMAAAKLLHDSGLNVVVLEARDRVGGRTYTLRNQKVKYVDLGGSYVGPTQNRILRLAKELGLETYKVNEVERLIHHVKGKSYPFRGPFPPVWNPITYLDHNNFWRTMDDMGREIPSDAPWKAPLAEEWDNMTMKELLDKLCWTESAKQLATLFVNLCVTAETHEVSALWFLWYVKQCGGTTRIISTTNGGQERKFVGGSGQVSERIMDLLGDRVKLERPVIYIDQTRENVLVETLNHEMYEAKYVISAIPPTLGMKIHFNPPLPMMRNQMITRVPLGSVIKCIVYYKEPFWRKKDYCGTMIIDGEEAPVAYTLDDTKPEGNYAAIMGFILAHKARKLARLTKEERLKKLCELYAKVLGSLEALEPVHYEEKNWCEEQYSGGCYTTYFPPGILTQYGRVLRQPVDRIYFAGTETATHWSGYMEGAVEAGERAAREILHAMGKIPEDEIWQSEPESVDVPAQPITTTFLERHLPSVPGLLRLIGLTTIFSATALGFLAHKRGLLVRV

[2] = biological target: T3, human recombinant monoamine oxidase A (MAO A) (Homo sapiens, UniProt P21397); set-up: purchased Sigma Chemical Company M-7316; host or cells: baculovirus infected insect cells (microsomes); conditions: read-out: published values MAO A; cited from earlier work
T3 sequence (P21397 1-527): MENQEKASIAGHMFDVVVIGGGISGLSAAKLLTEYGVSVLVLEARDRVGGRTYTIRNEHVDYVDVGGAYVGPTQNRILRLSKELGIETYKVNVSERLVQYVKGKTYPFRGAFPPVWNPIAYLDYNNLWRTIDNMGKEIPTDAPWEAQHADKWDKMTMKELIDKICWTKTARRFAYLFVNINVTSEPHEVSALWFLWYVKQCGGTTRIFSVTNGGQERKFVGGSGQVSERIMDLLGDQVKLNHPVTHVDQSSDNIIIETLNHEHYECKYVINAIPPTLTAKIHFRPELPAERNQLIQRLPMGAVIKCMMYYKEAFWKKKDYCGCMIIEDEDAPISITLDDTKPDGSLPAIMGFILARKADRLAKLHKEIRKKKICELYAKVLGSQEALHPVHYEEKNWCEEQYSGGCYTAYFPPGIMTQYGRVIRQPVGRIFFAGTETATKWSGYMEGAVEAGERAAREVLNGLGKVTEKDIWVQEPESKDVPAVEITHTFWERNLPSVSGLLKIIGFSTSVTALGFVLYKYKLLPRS

luciferase = assay: No-enzyme control: activity of luciferase towards the luciferin derivative (background luminescence); conditions: Table 32; microsomes from wild type baculovirus infected insect cells instead of FMO; CHES pH 9.5, 4 hours; duplicates
[3] = test system: human recombinant flavin-containing monooxygenase 1 (FMO 1); assay: Two-step luminescent FMO assay with luciferin derivative; format: biochemical; conditions: Table 32; CHES pH 9.5, NADPH regeneration, 4 hours room temperature; duplicates
[4] = test system: human recombinant flavin-containing monooxygenase 3 (FMO 3); assay: as above; format: biochemical; conditions: Table 32; CHES pH 9.5, NADPH regeneration, 4 hours room temperature; duplicates

**Q.** With `N=C(N)N1CCc2ccccc2C1` [debrisoquine] as the compound, how does the IC50 (CYP2D6) read?
**A.** 77 µM

**Q.** With `NCCc1ccccc1` [phenethylamine] as the compound, how does the IC50 [1] read?
**A.** 2 to 150 µM

**Q.** And the IC50 [2]?
**A.** 78 to 280 µM

**Q.** For `CCSCCOc1ccc2nc(C3=N[C@@H](C(=O)O)CS3)sc2c1` [FMO-2, 6-(2-ethylthioethoxy)-luciferin], which RLUs control (luciferase) is on record?
**A.** 8.7102 RLUs and 8.5489 RLUs

**Q.** And the “RLUs FMO 1” value [3]?
**A.** 11.778 RLUs and 12.006 RLUs

**Q.** And the “RLUs FMO 3” value [4]?
**A.** 12.194 RLUs and 10.425 RLUs
